{"source": "paper PMC5862592", "about": "“CDK8/19 inhibition induces premature G1/S transition and ATR-dependent cell death in prostate cancer cells” (Oncotarget, 2018)", "assay_in_all_cases": "biochemical", "parameters_in_all_cases": "KINOMEscan active site-directed competition binding assay (DiscoveRx), 456 kinases, per cent of control at 300 nM", "settings_in_all_cases": "read-out: Percent of Control (%)", "key": {"EGFR(G719S)": {"target": "EGFR(G719S) (Homo sapiens, UniProt P00533, G719S)", "how_it_was_run": "(§1)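 Compounds at 300 nmol/L screened against 456 kinases by KINOMEscan, a competition binding assay measuring displacement at the kinase active site.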"}, "NEK5": {"target": "NEK5 (Homo sapiens, UniProt Q6P3R8)", "how_it_was_run": "as §1"}, "MUSK": {"target": "MUSK (Homo sapiens, UniProt O15146)", "sequence (O15146 whole entry)": "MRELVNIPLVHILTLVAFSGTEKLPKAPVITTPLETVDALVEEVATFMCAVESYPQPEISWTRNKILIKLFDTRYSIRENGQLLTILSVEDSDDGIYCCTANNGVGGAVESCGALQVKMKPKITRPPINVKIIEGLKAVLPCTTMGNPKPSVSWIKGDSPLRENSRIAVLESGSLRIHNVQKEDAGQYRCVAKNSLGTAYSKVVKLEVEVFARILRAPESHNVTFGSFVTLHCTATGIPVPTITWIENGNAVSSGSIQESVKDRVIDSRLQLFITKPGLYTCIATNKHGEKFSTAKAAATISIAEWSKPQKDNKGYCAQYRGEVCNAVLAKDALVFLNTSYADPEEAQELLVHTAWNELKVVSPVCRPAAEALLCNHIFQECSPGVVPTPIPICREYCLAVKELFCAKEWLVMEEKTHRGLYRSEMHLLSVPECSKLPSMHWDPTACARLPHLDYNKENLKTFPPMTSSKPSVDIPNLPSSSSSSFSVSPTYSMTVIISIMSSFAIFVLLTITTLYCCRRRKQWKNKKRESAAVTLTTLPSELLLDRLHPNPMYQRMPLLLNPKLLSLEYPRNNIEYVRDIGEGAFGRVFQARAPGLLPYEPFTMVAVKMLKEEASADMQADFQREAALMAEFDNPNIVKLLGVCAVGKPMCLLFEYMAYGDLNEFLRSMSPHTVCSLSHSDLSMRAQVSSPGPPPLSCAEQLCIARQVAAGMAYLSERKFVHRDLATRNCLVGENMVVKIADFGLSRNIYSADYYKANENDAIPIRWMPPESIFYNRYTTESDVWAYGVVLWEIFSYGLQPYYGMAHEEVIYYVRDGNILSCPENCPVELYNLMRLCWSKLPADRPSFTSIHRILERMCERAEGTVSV", "how_it_was_run": "as §1"}, "SGK2": {"target": "SGK2 (Homo sapiens, UniProt Q9HBY8)", "how_it_was_run": "as §1"}, "CSNK1G3": {"target": "CSNK1G3 (Homo sapiens, UniProt Q9Y6M4)", "how_it_was_run": "as §1"}, "MERTK": {"target": "MERTK (Homo sapiens, UniProt Q12866)", "how_it_was_run": "as §1"}, "PRKR": {"target": "T1, PRKR (Homo sapiens, UniProt P19525)", "T1 construct": "gene EIF2AK2", "how_it_was_run": "as §1"}, "SNRK": {"target": "SNRK (Homo sapiens, UniProt Q9NRH2)", "sequence (Q9NRH2 whole entry)": "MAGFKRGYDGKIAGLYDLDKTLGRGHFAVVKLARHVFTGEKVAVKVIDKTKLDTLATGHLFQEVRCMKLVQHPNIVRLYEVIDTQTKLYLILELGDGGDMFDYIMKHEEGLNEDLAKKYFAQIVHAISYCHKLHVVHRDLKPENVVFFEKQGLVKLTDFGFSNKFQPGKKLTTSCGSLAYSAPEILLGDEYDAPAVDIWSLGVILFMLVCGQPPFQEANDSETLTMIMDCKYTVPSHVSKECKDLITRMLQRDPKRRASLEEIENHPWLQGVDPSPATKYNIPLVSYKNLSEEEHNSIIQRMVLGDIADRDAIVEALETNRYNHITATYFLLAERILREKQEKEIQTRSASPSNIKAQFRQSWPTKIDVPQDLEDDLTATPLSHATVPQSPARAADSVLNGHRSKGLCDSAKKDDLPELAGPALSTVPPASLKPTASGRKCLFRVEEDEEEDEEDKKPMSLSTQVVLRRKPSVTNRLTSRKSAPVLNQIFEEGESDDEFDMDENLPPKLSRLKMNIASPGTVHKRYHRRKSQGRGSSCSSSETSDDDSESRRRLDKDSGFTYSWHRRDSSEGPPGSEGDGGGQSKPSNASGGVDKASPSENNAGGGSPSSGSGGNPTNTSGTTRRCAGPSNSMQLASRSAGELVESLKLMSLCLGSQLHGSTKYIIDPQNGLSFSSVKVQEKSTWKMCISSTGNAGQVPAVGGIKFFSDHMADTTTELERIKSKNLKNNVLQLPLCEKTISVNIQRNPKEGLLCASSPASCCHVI", "how_it_was_run": "as §1"}, "MYO3B": {"target": "MYO3B (Homo sapiens, UniProt Q8WXR4)", "how_it_was_run": "as §1"}, "EPHB3": {"target": "EPHB3 (Homo sapiens, UniProt P54753)", "sequence (P54753 whole entry)": "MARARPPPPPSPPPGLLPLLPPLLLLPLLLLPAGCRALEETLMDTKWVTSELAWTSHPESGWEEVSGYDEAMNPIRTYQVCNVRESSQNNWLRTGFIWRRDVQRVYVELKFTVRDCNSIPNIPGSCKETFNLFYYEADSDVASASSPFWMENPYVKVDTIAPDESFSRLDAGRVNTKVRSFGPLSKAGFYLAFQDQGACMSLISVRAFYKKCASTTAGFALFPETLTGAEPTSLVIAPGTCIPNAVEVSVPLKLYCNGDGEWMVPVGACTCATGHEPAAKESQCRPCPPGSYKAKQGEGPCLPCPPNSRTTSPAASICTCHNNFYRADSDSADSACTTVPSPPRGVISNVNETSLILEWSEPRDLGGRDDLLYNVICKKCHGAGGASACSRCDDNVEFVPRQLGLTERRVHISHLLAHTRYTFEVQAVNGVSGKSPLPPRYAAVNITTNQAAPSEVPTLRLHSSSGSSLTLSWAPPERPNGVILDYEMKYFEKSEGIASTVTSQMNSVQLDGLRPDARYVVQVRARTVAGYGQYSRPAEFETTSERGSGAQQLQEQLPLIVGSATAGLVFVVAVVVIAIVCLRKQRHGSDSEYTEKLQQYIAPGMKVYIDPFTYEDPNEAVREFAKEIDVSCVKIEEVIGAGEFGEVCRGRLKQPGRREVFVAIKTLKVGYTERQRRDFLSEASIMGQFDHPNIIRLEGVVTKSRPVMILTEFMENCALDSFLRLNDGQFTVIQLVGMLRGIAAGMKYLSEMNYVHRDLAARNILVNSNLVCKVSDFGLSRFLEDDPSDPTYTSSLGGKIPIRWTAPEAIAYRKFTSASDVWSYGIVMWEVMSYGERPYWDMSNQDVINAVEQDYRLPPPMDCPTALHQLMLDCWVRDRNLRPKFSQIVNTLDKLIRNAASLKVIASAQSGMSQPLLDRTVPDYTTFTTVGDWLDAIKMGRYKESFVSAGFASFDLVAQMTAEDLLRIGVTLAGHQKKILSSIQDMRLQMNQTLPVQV", "how_it_was_run": "as §1"}, "MLK2": {"target": "T2, MLK2 (Homo sapiens, UniProt Q02779)", "T2 construct": "gene MAP3K10", "how_it_was_run": "as §1"}, "PAK3": {"target": "PAK3 (Homo sapiens, UniProt O75914)", "how_it_was_run": "as §1"}, "ALK(C1156Y)": {"target": "ALK(C1156Y) (Homo sapiens, UniProt Q9UM73, C1156Y)", "how_it_was_run": "as §1"}, "KIT(V559D,V654A)": {"target": "KIT(V559D,V654A) (Homo sapiens, UniProt P10721, V559D/V654A)", "sequence (P10721 whole entry V559D/V654A)": "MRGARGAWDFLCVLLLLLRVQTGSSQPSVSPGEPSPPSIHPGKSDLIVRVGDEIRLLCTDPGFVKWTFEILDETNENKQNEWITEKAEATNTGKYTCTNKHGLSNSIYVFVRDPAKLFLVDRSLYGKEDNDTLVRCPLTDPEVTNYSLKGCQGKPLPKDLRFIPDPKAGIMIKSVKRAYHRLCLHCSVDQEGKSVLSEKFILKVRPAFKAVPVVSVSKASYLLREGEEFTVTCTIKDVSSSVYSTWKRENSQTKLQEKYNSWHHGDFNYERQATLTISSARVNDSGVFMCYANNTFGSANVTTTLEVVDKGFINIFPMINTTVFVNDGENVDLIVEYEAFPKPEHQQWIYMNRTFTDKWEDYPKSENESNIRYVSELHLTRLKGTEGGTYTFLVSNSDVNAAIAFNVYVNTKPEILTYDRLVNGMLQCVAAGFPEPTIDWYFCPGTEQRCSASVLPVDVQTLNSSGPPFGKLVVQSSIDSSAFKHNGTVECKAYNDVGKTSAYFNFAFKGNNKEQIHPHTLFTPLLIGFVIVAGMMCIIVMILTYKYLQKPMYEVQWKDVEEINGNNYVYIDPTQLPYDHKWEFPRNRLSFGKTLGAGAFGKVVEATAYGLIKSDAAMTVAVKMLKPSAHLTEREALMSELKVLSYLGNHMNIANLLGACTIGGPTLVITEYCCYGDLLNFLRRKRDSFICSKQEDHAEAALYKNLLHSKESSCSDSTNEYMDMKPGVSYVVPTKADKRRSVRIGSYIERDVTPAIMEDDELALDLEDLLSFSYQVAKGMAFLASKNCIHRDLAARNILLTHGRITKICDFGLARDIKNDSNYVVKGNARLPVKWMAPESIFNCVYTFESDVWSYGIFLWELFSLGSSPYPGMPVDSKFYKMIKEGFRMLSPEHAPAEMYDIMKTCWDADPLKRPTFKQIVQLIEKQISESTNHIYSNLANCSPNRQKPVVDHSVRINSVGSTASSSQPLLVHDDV", "how_it_was_run": "as §1"}, "RIPK5": {"target": "T3, RIPK5 (Homo sapiens, UniProt Q6XUX3)", "T3 construct": "gene DSTYK", "how_it_was_run": "as §1"}, "PFTAIRE2": {"target": "T4, PFTAIRE2 (Homo sapiens, UniProt Q96Q40)", "T4 construct": "gene CDK15", "how_it_was_run": "as §1"}, "ROCK1": {"target": "ROCK1 (Homo sapiens, UniProt Q13464)", "sequence (Q13464 whole entry)": "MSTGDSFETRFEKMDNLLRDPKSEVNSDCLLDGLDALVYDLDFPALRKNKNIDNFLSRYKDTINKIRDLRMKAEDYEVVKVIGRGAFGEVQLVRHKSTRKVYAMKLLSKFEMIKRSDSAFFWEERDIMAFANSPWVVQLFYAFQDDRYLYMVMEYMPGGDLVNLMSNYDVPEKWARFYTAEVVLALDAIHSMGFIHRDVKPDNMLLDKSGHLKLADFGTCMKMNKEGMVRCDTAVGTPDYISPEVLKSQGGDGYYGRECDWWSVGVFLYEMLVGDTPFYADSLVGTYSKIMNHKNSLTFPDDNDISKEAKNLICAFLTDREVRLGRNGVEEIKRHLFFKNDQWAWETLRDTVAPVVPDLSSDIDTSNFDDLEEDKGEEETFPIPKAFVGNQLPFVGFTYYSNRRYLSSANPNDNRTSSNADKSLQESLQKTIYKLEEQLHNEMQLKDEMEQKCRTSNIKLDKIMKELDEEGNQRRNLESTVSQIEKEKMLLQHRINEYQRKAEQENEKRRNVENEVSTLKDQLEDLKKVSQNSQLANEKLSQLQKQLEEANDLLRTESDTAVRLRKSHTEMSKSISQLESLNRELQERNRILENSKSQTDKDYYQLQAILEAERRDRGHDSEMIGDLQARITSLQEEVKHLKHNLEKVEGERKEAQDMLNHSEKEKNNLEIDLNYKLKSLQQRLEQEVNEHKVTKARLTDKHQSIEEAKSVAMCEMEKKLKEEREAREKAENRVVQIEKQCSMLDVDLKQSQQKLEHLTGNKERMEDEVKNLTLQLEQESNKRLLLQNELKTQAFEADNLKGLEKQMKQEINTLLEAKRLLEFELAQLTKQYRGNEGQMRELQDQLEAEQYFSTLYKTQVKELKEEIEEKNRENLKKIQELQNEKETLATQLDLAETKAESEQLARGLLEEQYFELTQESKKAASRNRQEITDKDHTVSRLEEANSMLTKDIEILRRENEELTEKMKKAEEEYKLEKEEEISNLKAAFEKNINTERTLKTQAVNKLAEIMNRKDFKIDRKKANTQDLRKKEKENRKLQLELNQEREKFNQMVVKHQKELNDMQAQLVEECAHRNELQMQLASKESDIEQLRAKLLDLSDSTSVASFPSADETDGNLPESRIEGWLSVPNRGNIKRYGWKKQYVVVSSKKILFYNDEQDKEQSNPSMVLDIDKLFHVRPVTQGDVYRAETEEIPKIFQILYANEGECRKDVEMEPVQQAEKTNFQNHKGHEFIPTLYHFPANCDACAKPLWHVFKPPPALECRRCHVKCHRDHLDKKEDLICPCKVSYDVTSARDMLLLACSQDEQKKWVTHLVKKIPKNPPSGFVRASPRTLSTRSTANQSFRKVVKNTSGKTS", "how_it_was_run": "as §1"}, "LYN": {"target": "LYN (Homo sapiens, UniProt P07948)", "how_it_was_run": "as §1"}, "NEK4": {"target": "NEK4 (Homo sapiens, UniProt P51957)", "how_it_was_run": "as §1"}, "SIK2": {"target": "SIK2 (Homo sapiens, UniProt Q9H0K1)", "how_it_was_run": "as §1"}, "EGFR": {"target": "EGFR (Homo sapiens, UniProt P00533)", "how_it_was_run": "as §1"}, "YANK1": {"target": "T5, YANK1 (Homo sapiens, UniProt Q8WU08)", "T5 construct": "gene STK32A", "how_it_was_run": "as §1"}}, "note": "Where two headings read alike, the source gives them in different places.", "data": [{"smiles": "Cc1ncccc1Oc1sc(C(N)=O)c2c1-c1c(cnn1C)CC2", "note": "[T-474, 1-methyl-8-((2-methylpyridin-3-yl)oxy)-4,5-dihydro-1H-thieno[3,4-g]indazole-6-carboxamide]", "values": [{"measurement": "remaining binding at 0.3 µM", "setting": "EGFR(G719S)", "result": 92, "unit": "%"}, {"measurement": "remaining binding at 0.3 µM", "setting": "NEK5", "result": 100, "unit": "%"}, {"measurement": "remaining binding at 0.3 µM", "setting": "MUSK", "result": 100, "unit": "%"}, {"measurement": "remaining binding at 0.3 µM", "setting": "SGK2", "result": 95, "unit": "%"}, {"measurement": "remaining binding at 0.3 µM", "setting": "CSNK1G3", "result": 100, "unit": "%"}, {"measurement": "remaining binding at 0.3 µM", "setting": "MERTK", "result": 100, "unit": "%"}, {"measurement": "remaining binding at 0.3 µM", "setting": "PRKR", "result": 100, "unit": "%"}, {"measurement": "remaining binding at 0.3 µM", "setting": "SNRK", "result": 71, "unit": "%"}, {"measurement": "remaining binding at 0.3 µM", "setting": "MYO3B", "result": 84, "unit": "%"}, {"measurement": "remaining binding at 0.3 µM", "setting": "EPHB3", "result": 100, "unit": "%"}, {"measurement": "remaining binding at 0.3 µM", "setting": "MLK2", "result": 97, "unit": "%"}, {"measurement": "remaining binding at 0.3 µM", "setting": "PAK3", "result": 100, "unit": "%"}, {"measurement": "remaining binding at 0.3 µM", "setting": "ALK(C1156Y)", "result": 98, "unit": "%"}, {"measurement": "remaining binding at 0.3 µM", "setting": "KIT(V559D,V654A)", "result": 100, "unit": "%"}, {"measurement": "remaining binding at 0.3 µM", "setting": "RIPK5", "result": 100, "unit": "%"}, {"measurement": "remaining binding at 0.3 µM", "setting": "PFTAIRE2", "result": 100, "unit": "%"}, {"measurement": "remaining binding at 0.3 µM", "setting": "ROCK1", "result": 100, "unit": "%"}, {"measurement": "remaining binding at 0.3 µM", "setting": "LYN", "result": 100, "unit": "%"}, {"measurement": "remaining binding at 0.3 µM", "setting": "NEK4", "result": 100, "unit": "%"}, {"measurement": "remaining binding at 0.3 µM", "setting": "SIK2", "result": 100, "unit": "%"}, {"measurement": "remaining binding at 0.3 µM", "setting": "EGFR", "result": 61, "unit": "%"}, {"measurement": "remaining binding at 0.3 µM", "setting": "YANK1", "result": 100, "unit": "%"}]}, {"smiles": "O=C(/C=C/c1cnccc1-c1ccc(F)cc1)Nc1ccc(CCc2nnco2)cc1", "note": "[T-418, (2E)-3-(4-(4-fluorophenyl)pyridin-3-yl)-N-(4-(2-(1,3,4-oxadiazol-2-yl)ethyl)phenyl)acrylamide]", "values": [{"measurement": "remaining binding at 0.3 µM", "setting": "EGFR(G719S); sheet T-418", "result": 68, "unit": "%"}, {"measurement": "remaining binding at 0.3 µM", "setting": "NEK5; sheet T-418", "result": 100, "unit": "%"}, {"measurement": "remaining binding at 0.3 µM", "setting": "MUSK; sheet T-418", "result": 100, "unit": "%"}, {"measurement": "remaining binding at 0.3 µM", "setting": "SGK2; sheet T-418", "result": 94, "unit": "%"}, {"measurement": "remaining binding at 0.3 µM", "setting": "CSNK1G3; sheet T-418", "result": 100, "unit": "%"}, {"measurement": "remaining binding at 0.3 µM", "setting": "MERTK; sheet T-418", "result": 100, "unit": "%"}, {"measurement": "remaining binding at 0.3 µM", "setting": "PRKR; sheet T-418", "result": 100, "unit": "%"}, {"measurement": "remaining binding at 0.3 µM", "setting": "SNRK; sheet T-418", "result": 73, "unit": "%"}, {"measurement": "remaining binding at 0.3 µM", "setting": "MYO3B; sheet T-418", "result": 52, "unit": "%"}, {"measurement": "remaining binding at 0.3 µM", "setting": "EPHB3; sheet T-418", "result": 98, "unit": "%"}, {"measurement": "remaining binding at 0.3 µM", "setting": "MLK2; sheet T-418", "result": 71, "unit": "%"}, {"measurement": "remaining binding at 0.3 µM", "setting": "PAK3; sheet T-418", "result": 93, "unit": "%"}, {"measurement": "remaining binding at 0.3 µM", "setting": "ALK(C1156Y); sheet T-418", "result": 91, "unit": "%"}, {"measurement": "remaining binding at 0.3 µM", "setting": "KIT(V559D,V654A); sheet T-418", "result": 96, "unit": "%"}, {"measurement": "remaining binding at 0.3 µM", "setting": "RIPK5; sheet T-418", "result": 86, "unit": "%"}, {"measurement": "remaining binding at 0.3 µM", "setting": "PFTAIRE2; sheet T-418", "result": 92, "unit": "%"}, {"measurement": "remaining binding at 0.3 µM", "setting": "ROCK1; sheet T-418", "result": 81, "unit": "%"}, {"measurement": "remaining binding at 0.3 µM", "setting": "LYN; sheet T-418", "result": 100, "unit": "%"}, {"measurement": "remaining binding at 0.3 µM", "setting": "NEK4; sheet T-418", "result": 100, "unit": "%"}, {"measurement": "remaining binding at 0.3 µM", "setting": "SIK2; sheet T-418", "result": 100, "unit": "%"}, {"measurement": "remaining binding at 0.3 µM", "setting": "EGFR; sheet T-418", "result": 59, "unit": "%"}, {"measurement": "remaining binding at 0.3 µM", "setting": "YANK1; sheet T-418", "result": 100, "unit": "%"}]}]}
